Laboratory results taken from patent publication US7989469B2, “Certain chemical entities, compositions, and methods” (Cytokinetics, Incorporated, priority 2008, dated 2011).

Tested on: rabbit skeletal muscle myofibril preparations (approximately 90% fast fibers)
Assay: Activation of fast skeletal muscle fibers: enzymatic activity of myofibril preparations (PUMA assay system)
Assay type: biochemical
Parameters: unit not given here
Details: detergent treated myofibrils at pCa25%, 500 μM ATP
From the text: Fast fiber activators were identified by measuring the enzymatic activity of muscle myofibril preparations using the proprietary PUMA™ (see, e.g., U.S. Pat. Nos. 6,410,254, 6,743,599, 7,202,051, and 7,378,254) assay system. Myofibril preparations consisted of rabbit skeletal muscle (approximately 90% fast fibers) that had been treated with a detergen (triton X-100) to remove cellular membranes and then homogenized. This preparation retained all of the sarcomeric components in a native conformation and the enzymatic activity was still regulated by calcium. Compounds were tested using a myofibril suspension and a level of calcium sufficient to increase enzymatic activity of the myofibrils to 25% of their maximal rate (termed pCa25%). Enzymatic activity was tracked via a kinetic assay with a UV absorption readout. Hits were identified as compounds that increased the rate of enzymatic activity by greater than 40% at 40 μM. Myofibril preparations are calcium regulated and were screened at a level of calcium sufficient to produce a 25% increase in enzymatic rate. Detergent treated myofibrils were incubated with 500 μM ATP and 40 μM compound and a kinetic read of UV absorbance performed. Data was normalized to control wells.

6-chloro-7-(5-chloro(2-thienyl))-1-(ethylpropyl)imidazo[4,5-b]pyridin-2-ol
AC1.4 Median (cells marked †: Mean value): 0.084†

N-{4-[6-chloro-1-(ethylpropyl)-2-hydroxyimidazo[4,5-b]pyridin-7-yl]phenyl}acetamide
AC1.4 Median (median value (no †)): 28.930

CC[C@H](CCO)n1c(O)nc2ncc(Cl)c(-c3ccc(F)cc3)c21 [1-((1R)-1-ethyl-3-hydroxypropyl)-6-chloro-7-(4-fluorophenyl)imidazo[4,5-b]pyridin-2-ol]
AC1.4 Median (median value (no †)): 2.547

6-chloro-1-(ethylpropyl)-7-pyrazol-3-ylimidazo[4,5-b]pyridin-2-ol
AC1.4 Median (median value (no †)): 26.881

CC[C@H](COC(=O)[C@@H](N)C(C)C)c1nc2nc(O)[nH]c2c(-c2ccc(F)c(F)c2)c1Cl [(2S)-2-[7-(3,4-difluorophenyl)-6-chloro-2-hydroxyimidazo[4,5-b]pyridinyl]butyl (2S)-2-amino-3-methylbutanoate]
AC1.4 Median (median value (no †)): 6.640

CCC(CC)n1c(O)nc2ncc(Cl)c(-c3ccccc3C=O)c21 [2-[6-chloro-1-(ethylpropyl)-2-hydroxyimidazo[4,5-b]pyridin-7-yl]benzaldehyde]
AC1.4 Median (median value (no †)): 1.689

6-chloro-1-(ethylpropyl)-7-[3-(trifluoromethoxy)phenyl]imidazo[4,5-b]pyridin-2-ol
AC1.4 Median (median value (no †)): 2.369

6-chloro-1-(ethylpropyl)-7-(1-methyl(1H-indazol-6-yl))imidazo[4,5-b]pyridin-2-ol
AC1.4 Median (median value (no †)): 20.233

CC[C@@H](CO)n1c(O)nc2ncc(Cl)c(-c3ccc(Cl)cn3)c21 [1-((1S)-1-ethyl-2-hydroxyethyl)-6-chloro-7-(5-chloro(2-pyridyl))imidazo[4,5-b]pyridin-2-ol]
AC1.4 Median (median value (no †)): 9.592

CC[C@@H](n1c(O)nc2ncc(Cl)c(-c3ccc(F)cn3)c21)C(C)(C)O [1-((1R)-1-ethyl-2-hydroxy-2-methylpropyl)-6-chloro-7-(5-fluoro(2-pyridyl))imidazo[4,5-b]pyridin-2-ol]
AC1.4 Median (median value (no †)): 8.386

CC[C@@H](COC)n1c(O)nc2ncc(Cl)c(-c3ccc(F)cc3)c21 [1-[(1S)-1-(methoxymethyl)propyl]-6-chloro-7-(4-fluorophenyl)imidazo[4,5-b]pyridin-2-ol]
AC1.4 Median (median value (no †)): 0.317

CCC(CC)n1c(O)nc2ncc(Cl)c(-c3ccccc3)c21 [6-chloro-1-(ethylpropyl)-7-phenylimidazo[4,5-b]pyridin-2-ol]
AC1.4 Median (cells marked †: Mean value): 0.110†

CCC(CC)n1c(O)nc2ncc(Cl)c(-c3cccc(S(C)(=O)=O)c3)c21 [1-[6-chloro-1-(ethylpropyl)-2-hydroxyimidazo[4,5-b]pyridin-7-yl]-3-(methylsulfonyl)benzene]
AC1.4 Median (median value (no †)): 38.633

C[C@@H](CO)n1c(O)nc2ncc(Cl)c(-c3ccc(F)cc3)c21 [1-((1S)-2-hydroxy-isopropyl)-6-chloro-7-(4-fluorophenyl)imidazo[4,5-b]pyridin-2-ol]
AC1.4 Median (median value (no †)): 2.016

6-chloro-1-(ethylpropyl)-7-(1-methylpyrazol-4-yl)imidazo[4,5-b]pyridin-2-ol
AC1.4 Median (median value (no †)): 17.805

6-chloro-1-(ethylpropyl)-7-(4-pyridyl)imidazo[4,5-b]pyridin-2-ol
AC1.4 Median (median value (no †)): 3.015

CC[C@H](CO)n1c(O)nc2ncc(Cl)c(-c3ccc(F)c(F)c3)c21 [1-((1R)-1-ethyl-2-hydroxyethyl)-7-(3,4-difluorophenyl)-6-chloroimidazo[4,5-b]pyridin-2-ol]
AC1.4 Median (median value (no †)): 4.034

CC[C@H](COP(=O)(O)O)c1nc2nc(O)[nH]c2c(-c2ccc(F)cc2)c1Cl [(2S)-2-[6-chloro-7-(4-fluorophenyl)-2-hydroxyimidazo[4,5-b]pyridinyl]butyl dihydrogen phosphate]
AC1.4 Median (median value (no †)): 31.644

6-chloro-1-(ethylpropyl)-7-(3-hydroxyphenyl)imidazo[4,5-b]pyridin-2-ol
AC1.4 Median (median value (no †)): 3.021

CCC(CC)n1c(O)nc2ncc(Cl)c(-c3ccccc3C(=O)O)c21 [2-[6-chloro-1-(ethylpropyl)-2-hydroxyimidazo[4,5-b]pyridin-7-yl]benzoic acid]
AC1.4 Median (median value (no †)): 30.881
